From ChEMBL document CHEMBL3727350, “Agents and methods for treating ischemic and other diseases” (2014) come the findings set out here.

In the test the target is Transient receptor potential cation channel subfamily M member 7 (Mus musculus) (UniProt Q923J1). Put plainly: Inhibition of Tet-induced Flag-tagged mouse TRPM7 expressed in HEK293 cells assessed as inhibition of channel-mediated cell death in presence of Mg2+ incubated for 24 to 48 hrs by propidium iodide uptake assay. The test is classed as cell-based. The arrangement: concentration or dose not given beside the values.

The source made the active and inactive calls. The calls are words filed in the database; no cut-off is given here.

Chain of Transient receptor potential cation channel subfamily M member 7 (Mus musculus) (Q923J1 whole entry): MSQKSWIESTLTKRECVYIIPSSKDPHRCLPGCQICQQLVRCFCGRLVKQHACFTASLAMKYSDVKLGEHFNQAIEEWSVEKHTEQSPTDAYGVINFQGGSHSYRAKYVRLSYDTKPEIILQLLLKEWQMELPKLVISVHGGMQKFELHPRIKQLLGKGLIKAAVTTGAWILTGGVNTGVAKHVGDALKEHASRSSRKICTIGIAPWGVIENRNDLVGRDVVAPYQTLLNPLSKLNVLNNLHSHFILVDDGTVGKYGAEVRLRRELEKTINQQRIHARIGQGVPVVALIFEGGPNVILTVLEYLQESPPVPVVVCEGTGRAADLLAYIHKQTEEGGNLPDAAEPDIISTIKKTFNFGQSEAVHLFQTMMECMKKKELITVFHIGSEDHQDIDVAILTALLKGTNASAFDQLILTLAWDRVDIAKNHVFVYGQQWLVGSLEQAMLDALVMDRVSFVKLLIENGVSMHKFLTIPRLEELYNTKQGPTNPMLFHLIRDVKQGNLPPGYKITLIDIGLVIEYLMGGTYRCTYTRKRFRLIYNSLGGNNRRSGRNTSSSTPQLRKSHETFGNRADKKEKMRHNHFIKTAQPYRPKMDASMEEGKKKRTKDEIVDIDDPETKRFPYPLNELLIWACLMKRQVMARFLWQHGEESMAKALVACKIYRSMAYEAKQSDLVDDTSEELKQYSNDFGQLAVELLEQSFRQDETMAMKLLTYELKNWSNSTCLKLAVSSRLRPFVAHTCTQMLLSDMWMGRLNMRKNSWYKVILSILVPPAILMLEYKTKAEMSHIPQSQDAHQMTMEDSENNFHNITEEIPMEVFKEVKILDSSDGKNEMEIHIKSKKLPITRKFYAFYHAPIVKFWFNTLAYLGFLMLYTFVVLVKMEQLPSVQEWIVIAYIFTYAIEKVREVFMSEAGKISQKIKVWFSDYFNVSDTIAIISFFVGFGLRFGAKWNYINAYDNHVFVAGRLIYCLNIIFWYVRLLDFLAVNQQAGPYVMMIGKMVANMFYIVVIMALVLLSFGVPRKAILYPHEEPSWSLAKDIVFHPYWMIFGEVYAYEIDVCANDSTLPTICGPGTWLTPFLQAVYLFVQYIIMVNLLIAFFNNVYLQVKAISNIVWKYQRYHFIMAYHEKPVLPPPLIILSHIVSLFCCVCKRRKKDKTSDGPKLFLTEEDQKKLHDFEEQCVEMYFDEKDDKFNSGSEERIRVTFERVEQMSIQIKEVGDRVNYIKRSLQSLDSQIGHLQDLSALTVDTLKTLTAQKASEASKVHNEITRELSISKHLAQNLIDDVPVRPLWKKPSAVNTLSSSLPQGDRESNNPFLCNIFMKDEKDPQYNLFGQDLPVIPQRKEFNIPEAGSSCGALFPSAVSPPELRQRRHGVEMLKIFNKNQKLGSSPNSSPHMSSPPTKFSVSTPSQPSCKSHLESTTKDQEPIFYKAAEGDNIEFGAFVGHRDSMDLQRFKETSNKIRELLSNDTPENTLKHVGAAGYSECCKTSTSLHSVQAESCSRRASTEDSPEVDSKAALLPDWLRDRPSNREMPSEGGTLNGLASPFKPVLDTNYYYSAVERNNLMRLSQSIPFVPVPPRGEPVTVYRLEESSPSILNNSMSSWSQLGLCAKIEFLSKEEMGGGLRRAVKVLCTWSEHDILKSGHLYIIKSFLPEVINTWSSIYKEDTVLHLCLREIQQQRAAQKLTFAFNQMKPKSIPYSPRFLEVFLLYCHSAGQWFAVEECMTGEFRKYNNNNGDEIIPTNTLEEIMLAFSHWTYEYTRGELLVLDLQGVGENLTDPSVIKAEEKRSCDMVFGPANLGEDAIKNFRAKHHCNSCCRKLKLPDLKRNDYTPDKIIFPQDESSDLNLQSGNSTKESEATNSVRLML

Take `CN(C(=O)c1cnc(Oc2ccc(Cl)cc2)cc1C(F)(F)F)c1ccc(Cl)c(Cl)c1`: the inhibition (concentration not given here) amounted to 60%.

On to `O=[N+]([O-])C1=Cc2c(ccc3ccccc23)OC1c1c(Cl)cccc1Cl` (stereo not drawn), for which, where the note is “concentration not given here”, the inhibition amounted to 60%.

For `Cc1nn(Cc2nc(-c3ccc(Cl)cc3)cs2)c(C)c1Br`, under “concentration not given here”, the inhibition was 40%.

On to `CCCC1c2ccsc2CCN1C(=S)Nc1ccc(Cl)cc1Cl` (stereo not drawn), for which the inhibition (concentration not given here) amounted to 40%.

Consider `CCNC(=O)C(Cc1ccccc1)NC(=O)OC(C)(C)C` (stereo not drawn), for which the inhibition (concentration not given here) was 30%.

Take `COc1ccc(-c2n[nH]cc2CN2CCN(c3ccccc3OC)CC2)cc1`: the inhibition (concentration not given here) was below 30%.

Take `COc1ccc(CCNC(=O)c2sc3ccccc3c2Cl)cc1OC`: the inhibition (concentration not given here) was below 30%.

For the molecule `c1ccc2c(CN3CCN(Cc4ccc5c(c4)OCO5)CC3)c[nH]c2c1`, the inhibition (concentration not given here) stood at 60%.

In the case of `CS/C(=N\c1ccc(C)cc1)Nc1ccc(C)cc1`, the inhibition (concentration not given here) stood at 50%.

With `CC(=O)Nc1ccc(S(=O)(=O)Nc2ccccc2Oc2ccc(Cl)cc2Cl)cc1`, the inhibition (concentration not given here) is 80%.

As for `Cc1ccccc1NC(=O)NCc1cccs1`, for the setting “concentration not given here”, the inhibition came out at 60%.

As for `C[C@H]1O[C@@H](O[C@H]2[C@@H](O)C[C@H](O[C@H]3[C@@H](O)C[C@H](O[C@H]4CC[C@@]5(C)[C@H](CC[C@@H]6[C@@H]5C[C@@H](O)[C@]5(C)[C@@H](C7=CC(=O)OC7)CC[C@]65O)C4)O[C@@H]3C)O[C@@H]2C)C[C@H](O)[C@@H]1O`, the inhibition entry was “Dose-dependent effect”.

For the molecule `CCOC(=O)C(=CNc1csc(C)c1C(=O)OC)C(=O)OCC`, for the setting “concentration not given here”, the inhibition turned out to be 60%.

Regarding `Cc1onc(-c2c(Cl)cccc2Cl)c1C(=O)OCCOc1ccc(C(F)(F)F)cc1[N+](=O)[O-]`, the inhibition (concentration not given here) is 60%.

Take `CC(C)N(Cc1ccc(N(C)C)cc1)C(=O)c1sc2ccccc2c1Cl`: under “concentration not given here”, the inhibition came out at 50%.

`O=C1NC(=O)/C(=C/c2cccc(C#Cc3ccccc3)c2)S1`: for the setting “concentration not given here”, the inhibition came out at 60%.

With `Cc1c(C)c(C)c(CO/N=C/c2cccs2)c(C)c1C`, the inhibition (concentration not given here) was determined as 70%.

As for `CCC1(c2cccc(OC)c2)CCCC(=O)NC1` (stereo not drawn), the inhibition (concentration not given here) was below 30%.

Take `O=C(Nc1cccc(C(F)(F)F)c1)Nc1nnc(C2CC2)s1`: under “concentration not given here”, the inhibition turned out to be 50%.

Regarding `O=C(Nc1ccc(N2CCC(C(F)(F)F)CC2)nc1)c1ccc(OC(F)(F)F)cc1`, the inhibition (concentration not given here) is below 30%.

With `O=C(Nc1ccc2ccccc2n1)c1ccc(Cl)cc1`, the inhibition (concentration not given here) is 50%.

For the molecule `CC[C@H]1CN2CCc3cc(OC)c(OC)cc3[C@@H]2C[C@@H]1C[C@H]1NCCc2cc(OC)c(OC)cc21`, the inhibition entry is “Active”.

Turning to `N=C(NC(=O)c1cccc(Cn2cc(C(F)(F)F)ccc2=O)c1)c1ccc(Cl)cc1`, the inhibition (concentration not given here) was 40%.

On to `COc1ccc(-c2[nH]ncc2CN2CCC(O)(c3ccc(Cl)cc3)CC2)cc1`, for which the inhibition (concentration not given here) was below 30%.

On to `O=C1c2ccccc2C(=O)N1Cc1cccc(I)c1`, for which the inhibition (concentration not given here) is 40%.

`Cc1onc(-c2c(Cl)cccc2Cl)c1/C=C1/C(=O)Nc2ccccc21`: the inhibition (concentration not given here) amounted to 30%.

On to `FC(F)(F)c1cccc(OCc2ccc(-c3ncns3)cc2)c1`, for which the inhibition (concentration not given here) came out at 50%.

With `O=C(NNC(=S)Nc1ccc2c(c1)CCCO2)c1ccco1`, the inhibition (concentration not given here) is below 30%.

As for `NNC(=O)CSc1ccccc1[N+](=O)[O-]`, the inhibition (concentration not given here) turned out to be 40%.

As to `Cc1nc(-c2ccc(C(F)(F)F)cc2)nc(O)c1Cl`, the inhibition (concentration not given here) is below 30%.

For `O=C(NC(=O)c1c(Cl)cccc1Cl)Nc1nc2cc(Cl)ccc2s1`, the inhibition (concentration not given here) turned out to be 50%.

As for `Cc1ccc(S(=O)(=O)NCCN2CCN(C(=O)OC(C)(C)C)CC2)cc1`, the inhibition (concentration not given here) was below 30%.

With `Cc1ccc(C(=O)Nc2ccc(Oc3ccc(C(C)(C)C)cc3)nc2)cc1`, the inhibition (concentration not given here) turned out to be 70%.

For the molecule `OC1(C(F)(F)F)CC(c2cccs2)=NO1` (stereo not drawn), the inhibition (concentration not given here) came to 30%.

Regarding `COc1ccccc1C1CCN(C(=O)CSCc2cccc3ccccc23)CC1`, the inhibition (concentration not given here) amounted to 80%.

For `CC(C)(C)OC(=O)N1CCN(c2ccc(NS(=O)(=O)c3ccc(Cl)cc3)cn2)CC1`, the inhibition (concentration not given here) is below 30%.

`CCOc1ccc(Cc2nccc3cc(OCC)c(OCC)cc23)cc1OCC`: the inhibition result is “Dose-dependent effect”.

On to `O=C(NNC(=S)Nc1cc(Cl)ccc1Cl)c1ccccc1Cl`, for which, under “concentration not given here”, the inhibition is below 30%.

Turning to `CS/C(=N/C(C)(C)C)Nc1ccccc1Cl`, the inhibition (concentration not given here) is below 30%.

For `CSc1nnc(CN2C(=O)CSc3ccc(C(F)(F)F)cc32)n1C`, where the note is “concentration not given here”, the inhibition is below 30%.

As to `Cc1ccc(C(=O)Nc2cccnc2Oc2ccc(C(C)(C)C)cc2)cc1C`, where the note is “concentration not given here”, the inhibition came out at 60%.

Consider `N#Cc1ccc2c(c1)Sc1ccccc1N2`, for which, for the setting “concentration not given here”, the inhibition came out at 60%.

As to `Nc1nc(-c2ccc(-c3ccccc3)cc2)cs1`, the inhibition (concentration not given here) was found to be 40%.

`CCOC(=O)c1nn(-c2cccc(Cl)c2)cc(Sc2ccc(Cl)cc2)c1=O`: under “concentration not given here”, the inhibition is 40%.

For `COc1ccc(CCN2C(=O)CS/C2=N\c2ccc(C(C)(C)C)cc2)cc1OC`, the inhibition (concentration not given here) is below 30%.

In the case of `Cc1cc(OCc2c(C)c(C)c(C)c(C)c2C)c2c(Cl)ccc(C)c2n1`, the inhibition (concentration not given here) amounted to 40%.

In the case of `O=C(Nc1ccc(OC(F)(F)F)cc1)Nc1cc(-c2ccccc2)n[nH]1`, the inhibition (concentration not given here) is below 30%.

Take `N#CC(C#N)=CNc1cc(C(F)(F)F)ccc1N1CCCC1`: under “concentration not given here”, the inhibition is 40%.

Consider `Brc1ccc2nc(C34CC5CC(CC(C5)C3)C4)cn2c1`, for which the inhibition (concentration not given here) stood at 60%.

As for `O=S(=O)(NCc1cccs1)c1ccc(Sc2ncc(C(F)(F)F)cc2Cl)s1`, where the note is “concentration not given here”, the inhibition is below 30%.

For the molecule `Brc1cn[nH]c1/C=N/Nc1nc(-c2ccccc2)cs1`, where the note is “concentration not given here”, the inhibition came to 50%.

Regarding `Cc1ccc(Cn2nc(C(=O)O)cc2C)cc1`, the inhibition (concentration not given here) was below 30%.

In the case of `Clc1ccc2c(N3CCCCC3)ccnc2c1`, where the note is “concentration not given here”, the inhibition is below 30%.

With `Cc1onc(-c2c(Cl)cccc2Cl)c1C(=O)NCCc1csc2ccccc12`, the inhibition (concentration not given here) is below 30%.

As to `Clc1cccc2nnsc12`, under “concentration not given here”, the inhibition turned out to be 30%.

Consider `CC(C)Cc1ccc(C(C)c2nnc(-c3cccc([N+](=O)[O-])c3)o2)cc1` (stereo not drawn), for which the inhibition (concentration not given here) came out at 50%.

Consider `c1ccc2c(CNCc3cccc4ccccc34)cccc2c1`, for which the inhibition (concentration not given here) amounted to 70%.

`CC(C)(C)[C@H](CO)/N=C/c1cccc(/C=N/[C@H](CO)C(C)(C)C)n1`: the inhibition (concentration not given here) was below 30%.

Take `O=C(Nc1ccc(F)cc1F)c1cc(Cl)cc(Cl)c1O`: the inhibition (concentration not given here) was below 30%.

Turning to `N=C(NS(=O)(=O)c1cc(Cl)c(Oc2ccc([N+](=O)[O-])cc2Cl)c(Cl)c1)c1cccnc1`, the inhibition (concentration not given here) was 70%.

Consider `O=C(CC12CC3CC(CC(C3)C1)C2)N1CCOCC1`, for which, where the note is “concentration not given here”, the inhibition was below 30%.

For `CC(=O)Nc1ccc(S(=O)(=O)NNc2c(Cl)cncc2Cl)cc1Cl`, the inhibition (concentration not given here) is 50%.

With `CC(C)NC(=O)n1nccc1-c1cc(-c2ccccc2)no1`, where the note is “concentration not given here”, the inhibition was below 30%.

Turning to `CC(=O)CC(O)c1ccncc1` (stereo not drawn), under “concentration not given here”, the inhibition is below 30%.

On to `Cc1cc(C(=O)Nc2ccc(C(C)(C)C)cc2)nn1Cc1c(Cl)cccc1Cl`, for which the inhibition (concentration not given here) came to 70%.

Turning to `CCCCCCCCCc1c(O)c2ccccc2[nH]c1=O`, the inhibition (concentration not given here) was determined as 60%.

As to `O=C(NCc1cccs1)c1ccccc1`, the inhibition (concentration not given here) was below 30%.

In the case of `O=C(Oc1ccc([N+](=O)[O-])cc1)c1c(Cl)cccc1Cl`, the inhibition (concentration not given here) was 50%.

In the case of `N#Cc1c(Cl)cccc1Oc1ccc(S(=O)(=O)Nc2ccccc2)cc1`, the inhibition (concentration not given here) amounted to 40%.

In the case of `COc1cccc(NC(=O)Nc2nnc(C3CC3)s2)c1`, under “concentration not given here”, the inhibition is below 30%.

Take `CC(=O)OC[C@H](OC(C)=O)[C@@H](OC(C)=O)[C@@H](OC(C)=O)[C@H](OC(C)=O)c1nnn[nH]1`: under “concentration not given here”, the inhibition was below 30%.

`O=S(=O)(CS(=O)(=O)Oc1ccc(Cl)cc1Cl)Oc1ccc(Cl)cc1Cl`: the inhibition (concentration not given here) was below 30%.

As for `Cc1ccc([N+](=O)[O-])c(C(=O)NNC(=S)Nc2cccc(Cl)c2)c1`, where the note is “concentration not given here”, the inhibition was 60%.

Take `O=c1ccn(-c2ccc(F)cc2)nc1-c1ccnc(SCc2ccc(C(F)(F)F)cc2)n1`: the inhibition (concentration not given here) was below 30%.

For `CN(C)c1cc(-c2cc(Cl)sc2Cl)oc(=O)c1Cl`, the inhibition (concentration not given here) is below 30%.

For `CCOC(=O)c1c(C)csc1NC(=O)CSc1ccc(Cl)cc1`, where the note is “concentration not given here”, the inhibition worked out at 50%.

Take `Cc1cc(S(=O)(=O)Cc2noc(-c3c(C)noc3C)n2)c(C)cc1Cl`: the inhibition (concentration not given here) was determined as 40%.

Take `COc1ccccc1NC(=O)Nc1nn(C)c2cccc(N(C)C)c12`: the inhibition (concentration not given here) was found to be 60%.

For `C=C(C(=O)OC)C(O)c1ccc(Br)cc1` (stereo not drawn), the inhibition (concentration not given here) is 60%.

For `COC(=O)/C(=C/N(C)C)NC(=O)c1ccccc1`, under “concentration not given here”, the inhibition is below 30%.

As for `Cn1c(SCC(=O)Nc2cccc3nsnc23)nnc1C(F)(F)F`, the inhibition (concentration not given here) is below 30%.

In the case of `O=C(O)CSc1cc(C(F)(F)F)nc2ccccc12`, the inhibition (concentration not given here) was 30%.

As for `CCOC(=O)c1c(-n2c(C)ccc2C)sc2c1CCCC2`, under “concentration not given here”, the inhibition was found to be 70%.

On to `c1ccc(/N=c2/[n-]n(-c3ccccc3)c[n+]2-c2ccccc2)cc1`, for which, for the setting “concentration not given here”, the inhibition is below 30%.

Regarding `CN(C)c1cccc(N(C)C)c1CNC(=O)Nc1ccccc1`, under “concentration not given here”, the inhibition was below 30%.

In the case of `CSC1=N/C(=C\c2ccc(Cl)cc2)C(=O)N1Cc1ccco1`, the inhibition (concentration not given here) is 60%.

For the molecule `Cc1ccc(Oc2ccc(C(F)(F)F)cc2[N+](=O)[O-])c2c1CCC2`, the inhibition (concentration not given here) was below 30%.

As to `N#C/C(=N\Nc1ccc(Cl)cc1)C(N)=S`, under “concentration not given here”, the inhibition came out at 60%.

As to `CCOC(=O)c1ccc2c(c1)CC/C(=C\c1cccc(C(F)(F)F)c1)C2=O`, the inhibition (concentration not given here) is below 30%.

`C#CCSc1nc(-c2ccc(C(F)(F)F)cc2)nc(C)c1C(C)=O`: the inhibition (concentration not given here) is below 30%.

On to `CCOC(=O)c1cc(C)nn1C(=O)c1ccccc1Cl`, for which the inhibition (concentration not given here) was 30%.

As for `[O-][S+](c1ccc(Cl)cc1)c1ccc(-c2ccccn2)s1` (stereo not drawn), where the note is “concentration not given here”, the inhibition was below 30%.

As for `Fc1ccc(C2CN3C(=N2)C=Cc2ccccc23)cc1` (stereo not drawn), the inhibition (concentration not given here) is below 30%.

Turning to `Cc1noc(C)c1C(=O)OCc1ccc(-c2ccc(F)cc2F)o1`, for the setting “concentration not given here”, the inhibition was found to be 50%.

For `O=C(CCSCc1ccc(Cl)cc1)Nc1ccc(Cl)cc1`, the inhibition (concentration not given here) was 60%.

With `COc1cc(OC)cc(C(C)(C)OC(=O)NCCC(=O)O)c1`, the inhibition (concentration not given here) is below 30%.

Take `Cc1ccc(NS(=O)(=O)c2ccc(-c3csc(C)n3)s2)c(C)c1`: the inhibition result is “Active”.

As to `O=C(O)CNC(=O)c1cccs1`, for the setting “concentration not given here”, the inhibition is below 30%.
